Experimental data from patent publication US10513523B2, “Imidazopyrazines and pyrazolopyrimidines and their use as AMPA receptor modulators” (Janssen Pharmaceutica NV, priority 2015, dated 2019).

biological target: GluA1o-γ8 (GRIA1o-CACNG8 fusion construct; TARP γ8 dependent AMPA receptor) (Homo sapiens (Human), UniProt P42261+Q8WXS5); test: Calcium flux assay (FLIPR), inhibition of glutamate response of GluA1o-γ8 channel; type: cell-based; details: HEK293 cells stably expressing GRIA1o-CACNG8 fusion; 15 μM glutamate; pIC50 = negative log of IC50 in molar; read-out: GluR1-γ8 (pIC50) (converted)
Sequence (P42261 other isoform, or with tags, fused parts or gaps): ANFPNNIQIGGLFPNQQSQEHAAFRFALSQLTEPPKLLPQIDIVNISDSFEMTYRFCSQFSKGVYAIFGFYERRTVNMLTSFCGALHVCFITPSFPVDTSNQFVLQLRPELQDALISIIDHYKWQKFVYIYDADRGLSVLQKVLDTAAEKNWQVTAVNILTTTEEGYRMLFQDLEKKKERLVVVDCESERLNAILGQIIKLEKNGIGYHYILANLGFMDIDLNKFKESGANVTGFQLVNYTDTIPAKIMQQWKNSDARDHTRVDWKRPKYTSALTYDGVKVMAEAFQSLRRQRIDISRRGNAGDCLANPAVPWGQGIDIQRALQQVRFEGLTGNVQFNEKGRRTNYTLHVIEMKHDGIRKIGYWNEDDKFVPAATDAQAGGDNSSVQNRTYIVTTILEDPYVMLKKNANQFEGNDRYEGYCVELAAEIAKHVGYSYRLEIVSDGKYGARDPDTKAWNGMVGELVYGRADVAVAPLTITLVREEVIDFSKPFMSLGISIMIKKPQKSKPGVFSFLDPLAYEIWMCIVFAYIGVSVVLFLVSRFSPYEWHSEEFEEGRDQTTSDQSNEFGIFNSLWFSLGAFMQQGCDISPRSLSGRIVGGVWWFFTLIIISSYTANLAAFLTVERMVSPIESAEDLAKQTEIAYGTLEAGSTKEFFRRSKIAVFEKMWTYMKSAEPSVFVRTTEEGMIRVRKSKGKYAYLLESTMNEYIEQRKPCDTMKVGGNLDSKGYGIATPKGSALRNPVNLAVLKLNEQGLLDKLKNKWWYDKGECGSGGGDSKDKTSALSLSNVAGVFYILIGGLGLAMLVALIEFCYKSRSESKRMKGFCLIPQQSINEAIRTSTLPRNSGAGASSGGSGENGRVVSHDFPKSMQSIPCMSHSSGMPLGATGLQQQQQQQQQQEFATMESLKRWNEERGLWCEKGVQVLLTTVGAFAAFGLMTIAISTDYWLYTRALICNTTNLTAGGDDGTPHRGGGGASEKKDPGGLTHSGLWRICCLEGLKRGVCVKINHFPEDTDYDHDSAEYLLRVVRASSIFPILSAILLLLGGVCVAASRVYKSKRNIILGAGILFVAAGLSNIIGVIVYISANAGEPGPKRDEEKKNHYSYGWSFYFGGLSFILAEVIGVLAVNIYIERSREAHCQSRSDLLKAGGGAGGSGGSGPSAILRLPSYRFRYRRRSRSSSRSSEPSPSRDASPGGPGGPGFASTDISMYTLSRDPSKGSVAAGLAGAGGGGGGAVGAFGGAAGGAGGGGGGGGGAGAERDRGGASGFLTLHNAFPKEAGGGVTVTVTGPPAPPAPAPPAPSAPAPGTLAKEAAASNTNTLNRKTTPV
Description: This assay was used to test compounds for their ability to inhibit TARP γ8 dependent AMPA receptor activity. The AMPA receptor is a non-selective cation channel activated by glutamate. Ionotropic glutamate receptors normally desensitize too rapidly to allow detectable calcium influx in a FLIPR assay (Strange et al. (2006). “Functional characterisation of homomeric ionotropic glutamate receptors GluR1-GluR6 in a fluorescence-based high throughput screening assay.” Comb Chem High Throughput Screen 9(2): 147-158). But, this desensitization is incomplete, and a substantial steady-state current remains in the sustained presence of glutamate (Cho et al. (2007). “Two families of TARP isoforms that have distinct effects on the kinetic properties of AMPA receptors and synaptic currents.” Neuron 55(6): 890-904).
An in vitro assay was used to determine the potency of test compounds as inhibitors of the glutamate response of the channel formed by GluA1o-γ8. To ensure a 1:1 stoichiometry of GluA10 and γ8 subunits in the expressed channel, a fusion of the cDNAs for GRIA1o and CACNG8 was used. Following Shi et al (2009) “The stoichiometry of AMPA receptors and TARPs varies by neuronal cell type.” Neuron 62(5): […]), the C-terminus of the cDNA for GRI1o was fused to the N-terminus of the cDNA for γ8. The linker sequence was […]. […] A clonal cell line in HEK293 cells stably expressing this construct, with a geneticin selection marker, was generated for use in this assay. Cell expressing the GRIA1o-CACNG8 fusion construct were grown in a monolayer in 96- or 384-well microtiter plates. They were washed with assay buffer (135 mM NaCl, 4 mM KCl, 3 mM CaCl2, 1 mM MgCl2, 5 mM glucose, 10 mM HEPES, pH 7.4, 300 mOs) using a Biotek EL405 plate washer. The cells were then loaded with a calcium-sensitive dye (Calcium-5 or Calcium-6, Molecular Devices) and the test compounds at a range of concentrations. Calcium flux following the addition of 15 μM glutamate was monitored using a Molecular Devices FLIPR Tetra.
The fluorescence in each well was normalized to the fluorescence of negative and positive control wells. […] The responses to glutamate as functions of the test compound concentrations were fitted to a four-parameter logistic function. The fitted parameter corresponding to the midpoint was taken to be the potency of inhibition of the compound.

`O=C1Cc2cc(-c3c(-c4ccc(F)cc4)nc4c(N5CC[C@H](O)C5)nccn34)ccc2N1` (single isomer, unassigned) [Example 53, (S*)-5-[2-(4-Fluorophenyl)-8-(3-hydroxypyrrolidin-1-yl)imidazo[1,2-a]pyrazin-3-yl]indolin-2-one] and `O=C1Cc2cc(-c3c(-c4ccc(F)cc4)nc4c(N5CC(Cl)C5)nccn34)ccc2N1` [Example 61, 5-[8-(3-Chloroazetidin-1-yl)-2-(4-fluorophenyl)imidazo[1,2-a]pyrazin-3-yl]indolin-2-one] are the same in IC50: 1.58 nM for the first, 1.58 nM for the second.

Going from `Oc1ccc(-c2c(-c3ccc(F)cc3)nc3c(N4CCCC4)nccn23)cc1` [Example 126, 4-[2-(4-Fluorophenyl)-8-pyrrolidin-1-yl-imidazo[1,2-a]pyrazin-3-yl]phenol] to `CC(=O)N1CCCN(c2nccn3c(-c4ccc(O)cc4)c(-c4ccc(Cl)cc4)nc23)CC1` [Example 92, 1-[4-[2-(4-Chlorophenyl)-3-(4-hydroxyphenyl)imidazo[1,2-a]pyrazin-8-yl]-1,4-diazepan-1-yl]ethanone], the IC50 falls from 50.1 nM to 25.1 nM (2-fold).

`CC(=O)N1CCN(c2nccc3c(-c4ccc5c(c4)CC(=O)N5)c(-c4ccc(F)cc4)nn23)CC1` [Example 172, 5-[7-(4-Acetylpiperazin-1-yl)-2-(4-fluorophenyl)pyrazolo[1,5-c]pyrimidin-3-yl]indolin-2-one] and `O=C1Cc2cc(-c3c(-c4ccccc4)nn4c(N5CCC(O)CC5)nccc34)ccc2N1` [Example 187, 5-[7-(4-Hydroxy-1-piperidyl)-2-phenyl-pyrazolo[1,5-c]pyrimidin-3-yl]indolin-2-one] are the same in IC50: 0.158 nM for the first, 0.158 nM for the second.

Compared with `Cc1cnc(N2CCOCC2)n2nc(C(C)C)c(-c3ccc4[nH]ncc4c3)c12` [Example 239, 4-[3-(1H-Indazol-5-yl)-2-isopropyl-4-methyl-pyrazolo[1,5-c]pyrimidin-7-yl]morpholine], `O=C1Cc2cc(-c3c(C4CCCC4)nn4c(N5CCOCC5)nccc34)ccc2N1` [Example 203, 5-(2-Cyclopentyl-7-morpholino-pyrazolo[1,5-c]pyrimidin-3-yl)indolin-2-one] is 1.6-fold higher in IC50: 39.8 nM for the first, 63.1 nM for the second.

First: CC1(O)CN(c2nccn3c(-c4ccc5c(c4)CC(=O)N5)c(-c4ccc(F)cc4)nc23)C1 [Example 67, 5-[2-(4-Fluorophenyl)-8-(3-hydroxy-3-methyl-azetidin-1-yl)imidazo[1,2-a]pyrazin-3-yl]indolin-2-one]
Second: CC1(O)CCN(c2nccn3c(-c4ccc5c(c4)CC(=O)N5)c(-c4ccc(F)cc4)nc23)CC1 [Example 68, 5-[2-(4-Fluorophenyl)-8-(4-hydroxy-4-methyl-1-piperidyl)imidazo[1,2-a]pyrazin-3-yl]indolin-2-one]
The IC50 of the first is 13-fold higher: 1.26 nM for the first, 0.1 nM for the second.

Going from `O=C1CN(c2nccn3c(-c4ccc5[nH]c(=O)[nH]c5c4)c(-c4ccc(F)cc4)nc23)CCN1` [Example 34, 5-[2-(4-Fluorophenyl)-8-(3-oxopiperazin-1-yl)imidazo[1,2-a]pyrazin-3-yl]-1,3-dihydrobenzimidazol-2-one] to `C[C@@H]1COCCN1c1nccn2c(-c3ccc4c(c3)CC(=O)N4)c(-c3ccc(F)cc3)nc12` [Example 44, 5-[2-(4-Fluorophenyl)-8-[(3R)-3-methylmorpholin-4-yl]imidazo[1,2-a]pyrazin-3-yl]indolin-2-one], the IC50 rises from 1.26 nM to 7.94 nM (6.3-fold).

First: CO[C@H]1CCN(c2nccc3c(-c4ccc5c(c4)CC(=O)N5)c(-c4ccccc4)nn23)C1 [Example 197, 5-[7-[(3S)-3-Methoxypyrrolidin-1-yl]-2-phenyl-pyrazolo[1,5-c]pyrimidin-3-yl]indolin-2-one]
Second: C[S+]([O-])c1nccn2c(-c3ccc4c(c3)CC(=O)N4)c(-c3ccc(F)cc3)nc12 (stereo not drawn) [Example 128, 5-[2-(4-Fluorophenyl)-8-methylsulfinyl-imidazo[1,2-a]pyrazin-3-yl]indolin-2-one]
The IC50 of the first is 500-fold lower: 1.26 nM for the first, 631 nM for the second.

Work on `O=C1Cc2cc(-c3c(C4CCCCC4)nc4c(N5CCOCC5)nccn34)ccc2N1` [Example 56, 5-(2-Cyclohexyl-8-morpholino-imidazo[1,2-a]pyrazin-3-yl)indolin-2-one] yielded an IC50 of 7.94 nM.
